Assay results: publication PMC6979384, “Characterization of the plant homeodomain (PHD) reader family for their histone tail interactions” (Epigenetics & Chromatin, 2020)

Assays:
Test in all cases: Histone peptide microarray
Format in all cases: binding, human
Conditions in all cases: arrays performed twice
AIRE (PP) = tested on: AIRE (PP)
Summary of the method: (§1)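 A peptide microarray holding 293 synthetic histone peptides with individual or combinatorial modifications was probed with each GST-PHD protein at 0.5 μM. Values represent mean intensity (±SD) from four replicates.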

BAZ2B = tested on: BAZ2B
Summary of the method: as §1

BPTF (PB) = tested on: BPTF (PB)
Summary of the method: as §1

CHD4 (PPCC) = tested on: CHD4 (PPCC)
Summary of the method: as §1

CHD5 (PCC) = tested on: CHD5 (PCC)
Summary of the method: as §1

CHD5 (PPCC) = tested on: CHD5 (PPCC)
Summary of the method: as §1

DIDO1 = tested on: DIDO1
Summary of the method: as §1

DPF2 (PPC2W2) = tested on: DPF2 (PPC2W2)
Summary of the method: as §1

ING1 = tested on: ING1
Summary of the method: as §1

ING2 = tested on: ING2
Summary of the method: as §1

ING3 = tested on: ING3
Summary of the method: as §1

ING4 = tested on: ING4
Summary of the method: as §1

ING5 = tested on: ING5
Summary of the method: as §1

KDM4C (TTP) = tested on: KDM4C (TTP)
Summary of the method: as §1

KDM5A (1) = tested on: KDM5A (1)
Summary of the method: as §1

KDM5A (3) = tested on: KDM5A (3)
Summary of the method: as §1

KDM5B (1) = tested on: KDM5B (1)
Summary of the method: as §1

KDM5B (3) = tested on: KDM5B (3)
Summary of the method: as §1

KDM7A = tested on: KDM7A
Summary of the method: as §1

MLL5 = tested on: MLL5
Summary of the method: as §1

MORC3 (CW) = tested on: MORC3 (CW)
Summary of the method: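 GST-tagged PHD finger readers were expressed, purified and applied at 0.5 μM to a microarray of 293 synthetic histone peptides carrying single or combinatorial PTMs, using an optimized protocol. Binding signals are averages with standard deviation from 4 replicates.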

PHF13 = tested on: PHF13
Summary of the method: as §1

PHF21A = tested on: PHF21A
Summary of the method: as §1

PHF23 = tested on: PHF23
Summary of the method: as §1

PHF2 = tested on: PHF2
Summary of the method: as §1

PHF8 = tested on: PHF8
Summary of the method: as §1

PHRF1 (RP) = tested on: PHRF1 (RP)
Summary of the method: as §1

RAG2 = tested on: RAG2
Summary of the method: as §1

SP140L = tested on: SP140L
Summary of the method: as §1

TAF3 = tested on: TAF3
Summary of the method: as §1

TRIM66 (PB) = tested on: TRIM66 (PB)
Summary of the method: as §1

[1] = histone peptide array, GST-tagged reader, n of 4
[2] = histone peptide array, GST-tagged reader, PB = PHD + Bromodomain, n of 4
[3] = histone peptide array, GST-tagged reader, PPCC = Dual PHD + Dual Chromodomain, n of 4
[4] = histone peptide array, GST-tagged reader, PCC = PHD + Dual Chromodomain, n of 4
[5] = histone peptide array, GST-tagged reader, PPC2W2 = Dual PHD + C2W2-type Zn-finger, n of 4
[6] = histone peptide array, GST-tagged reader, TTP = Tandem Tudor domain + PHD, n of 4
[7] = histone peptide array, GST-tagged reader, CW = CW-type Zn-finger, n of 4

Substance: H3 (1-32): H3 1-32
- Array Heatmap signal, AIRE (PP) (AIRE (PP); sheet "Array Heatmap", GST-tagged AIRE (PP), total replicate number n = 4): 0.4331
- Array Heatmap signal, BAZ2B (BAZ2B; sheet "Array Heatmap", GST-tagged BAZ2B, total replicate number n = 4): 0.4644
- Array Heatmap signal, BPTF (PB) (BPTF (PB); sheet "Array Heatmap", GST-tagged BPTF (PB), total replicate number n = 4): 0.3386
- Array Heatmap signal, CHD4 (PPCC) (CHD4 (PPCC); sheet "Array Heatmap", GST-tagged CHD4 (PPCC), total replicate number n = 4): 0.5584
- Array Heatmap signal, CHD5 (PCC) (CHD5 (PCC); sheet "Array Heatmap", GST-tagged CHD5 (PCC), total replicate number n = 4): 0.752
- Array Heatmap signal, CHD5 (PPCC) (CHD5 (PPCC); sheet "Array Heatmap", GST-tagged CHD5 (PPCC), total replicate number n = 4): 0.5395
- Array Heatmap signal, DIDO1 (DIDO1; sheet "Array Heatmap", GST-tagged DIDO1, total replicate number n = 4): 0.6427
- Array Heatmap signal, DPF2 (PPC2W2) (DPF2 (PPC2W2); sheet "Array Heatmap", GST-tagged DPF2 (PPC2W2), total replicate number n = 4): 0.6414
- Array Heatmap signal, ING1 (ING1; sheet "Array Heatmap", GST-tagged ING1, total replicate number n = 4): 0.5053
- Array Heatmap signal, ING2 (ING2; sheet "Array Heatmap", GST-tagged ING2, total replicate number n = 4): 0.5998
- Array Heatmap signal, ING3 (ING3; sheet "Array Heatmap", GST-tagged ING3, total replicate number n = 4): 0.4534
- Array Heatmap signal, ING4 (ING4; sheet "Array Heatmap", GST-tagged ING4, total replicate number n = 4): 0.4381
- Array Heatmap signal, ING5 (ING5; sheet "Array Heatmap", GST-tagged ING5, total replicate number n = 4): 0.344
- Array Heatmap signal, KDM4C (TTP) (KDM4C (TTP); sheet "Array Heatmap", GST-tagged KDM4C (TTP), total replicate number n = 4): 0.4465
- Array Heatmap signal, KDM5A (1) (KDM5A (1); sheet "Array Heatmap", GST-tagged KDM5A (1), total replicate number n = 4): 0.4672
- Array Heatmap signal, KDM5A (3) (KDM5A (3); sheet "Array Heatmap", GST-tagged KDM5A (3), total replicate number n = 4): 0.5232
- Array Heatmap signal, KDM5B (1) (KDM5B (1); sheet "Array Heatmap", GST-tagged KDM5B (1), total replicate number n = 4): 0.6889
- Array Heatmap signal, KDM5B (3) (KDM5B (3); sheet "Array Heatmap", GST-tagged KDM5B (3), total replicate number n = 4): 0.4939
- Array Heatmap signal, KDM7A (KDM7A; sheet "Array Heatmap", GST-tagged KDM7A, total replicate number n = 4): 0.308
- Array Heatmap signal, MLL5 (MLL5; sheet "Array Heatmap", GST-tagged MLL5, total replicate number n = 4): 0.5257
- Array Heatmap signal, MORC3 (CW) (MORC3 (CW); sheet "Array Heatmap", GST-tagged MORC3 (CW), total replicate number n = 4): 0.4518
- Array Heatmap signal, PHF13 (PHF13; sheet "Array Heatmap", GST-tagged PHF13, total replicate number n = 4): 0.5781
- Array Heatmap signal, PHF21A (PHF21A; sheet "Array Heatmap", GST-tagged PHF21A, total replicate number n = 4): 0.4399
- Array Heatmap signal, PHF23 (PHF23; sheet "Array Heatmap", GST-tagged PHF23, total replicate number n = 4): 0.5255
- Array Heatmap signal, PHF2 (PHF2; sheet "Array Heatmap", GST-tagged PHF2, total replicate number n = 4): 0.514
- Array Heatmap signal, PHF8 (PHF8; sheet "Array Heatmap", GST-tagged PHF8, total replicate number n = 4): 0.3413
- Array Heatmap signal, PHRF1 (RP) (PHRF1 (RP); sheet "Array Heatmap", GST-tagged PHRF1 (RP), total replicate number n = 4): 0.6359
- Array Heatmap signal, RAG2 (RAG2; sheet "Array Heatmap", GST-tagged RAG2, total replicate number n = 4): 0.2569
- Array Heatmap signal, SP140L (SP140L; sheet "Array Heatmap", GST-tagged SP140L, total replicate number n = 4): 0.3492
- Array Heatmap signal, TAF3 (TAF3; sheet "Array Heatmap", GST-tagged TAF3, total replicate number n = 4): 0.2681
- Array Heatmap signal, TRIM66 (PB) (TRIM66 (PB); sheet "Array Heatmap", GST-tagged TRIM66 (PB), total replicate number n = 4): 0.7057

Substance: H3 (15-34)K27ac: H3 15-34
- Array Heatmap signal, AIRE (PP) (AIRE (PP); [1]): 0.5038
- Array Heatmap signal, BAZ2B (BAZ2B; [1]): 0.4845
- Array Heatmap signal, BPTF (PB) (BPTF (PB); [2]): 0.3592
- Array Heatmap signal, CHD4 (PPCC) (CHD4 (PPCC); [3]): 0.5674
- Array Heatmap signal, CHD5 (PCC) (CHD5 (PCC); [4]): 0.7622
- Array Heatmap signal, CHD5 (PPCC) (CHD5 (PPCC); [3]): 0.5983
- Array Heatmap signal, DIDO1 (DIDO1; [1]): 0.6571
- Array Heatmap signal, DPF2 (PPC2W2) (DPF2 (PPC2W2); [5]): 0.642
- Array Heatmap signal, ING1 (ING1; [1]): 0.5528
- Array Heatmap signal, ING2 (ING2; [1]): 0.5993
- Array Heatmap signal, ING3 (ING3; [1]): 0.5008
- Array Heatmap signal, ING4 (ING4; [1]): 0.4806
- Array Heatmap signal, ING5 (ING5; [1]): 0.3933
- Array Heatmap signal, KDM4C (TTP) (KDM4C (TTP); [6]): 0.5365
- Array Heatmap signal, KDM5A (1) (KDM5A (1); [1]): 0.5009
- Array Heatmap signal, KDM5A (3) (KDM5A (3); [1]): 0.4223
- Array Heatmap signal, KDM5B (1) (KDM5B (1); [1]): 0.6588
- Array Heatmap signal, KDM5B (3) (KDM5B (3); [1]): 0.4788
- Array Heatmap signal, KDM7A (KDM7A; [1]): 0.3922
- Array Heatmap signal, MLL5 (MLL5; [1]): 0.5399
- Array Heatmap signal, MORC3 (CW) (MORC3 (CW); [7]): 0.3756
- Array Heatmap signal, PHF13 (PHF13; [1]): 0.6352
- Array Heatmap signal, PHF21A (PHF21A; [1]): 0.4777
- Array Heatmap signal, PHF23 (PHF23; [1]): 0.5579
- Array Heatmap signal, PHF2 (PHF2; [1]): 0.4814
- Array Heatmap signal, PHF8 (PHF8; [1]): 0.3727
- Array Heatmap signal, PHRF1 (RP) (PHRF1 (RP); [1]): 0.4538
- Array Heatmap signal, RAG2 (RAG2; [1]): 0.2665
- Array Heatmap signal, SP140L (SP140L; [1]): 0.3795
- Array Heatmap signal, TAF3 (TAF3; [1]): 0.268
- Array Heatmap signal, TRIM66 (PB) (TRIM66 (PB); [2]): 0.5567

Substance: H3 (15-34)K27but: H3 15-34
- Array Heatmap signal, AIRE (PP) (AIRE (PP); [1]): 0.5516
- Array Heatmap signal, BAZ2B (BAZ2B; [1]): 0.4927
- Array Heatmap signal, BPTF (PB) (BPTF (PB); [2]): 0.3698
- Array Heatmap signal, CHD4 (PPCC) (CHD4 (PPCC); [3]): 0.6128
- Array Heatmap signal, CHD5 (PCC) (CHD5 (PCC); [4]): 0.8263
- Array Heatmap signal, CHD5 (PPCC) (CHD5 (PPCC); [3]): 0.5931
- Array Heatmap signal, DIDO1 (DIDO1; [1]): 0.6557
- Array Heatmap signal, DPF2 (PPC2W2) (DPF2 (PPC2W2); [5]): 0.6771
- Array Heatmap signal, ING1 (ING1; [1]): 0.5341
- Array Heatmap signal, ING2 (ING2; [1]): 0.591
- Array Heatmap signal, ING3 (ING3; [1]): 0.4849
- Array Heatmap signal, ING4 (ING4; [1]): 0.489
- Array Heatmap signal, ING5 (ING5; [1]): 0.383
- Array Heatmap signal, KDM4C (TTP) (KDM4C (TTP); [6]): 0.5459
- Array Heatmap signal, KDM5A (1) (KDM5A (1); [1]): 0.5054
- Array Heatmap signal, KDM5A (3) (KDM5A (3); [1]): 0.4198
- Array Heatmap signal, KDM5B (1) (KDM5B (1); [1]): 0.6712
- Array Heatmap signal, KDM5B (3) (KDM5B (3); [1]): 0.5015
- Array Heatmap signal, KDM7A (KDM7A; [1]): 0.4288
- Array Heatmap signal, MLL5 (MLL5; [1]): 0.5529
- Array Heatmap signal, MORC3 (CW) (MORC3 (CW); [7]): 0.372
- Array Heatmap signal, PHF13 (PHF13; [1]): 0.644
- Array Heatmap signal, PHF21A (PHF21A; [1]): 0.4988
- Array Heatmap signal, PHF23 (PHF23; [1]): 0.5352
- Array Heatmap signal, PHF2 (PHF2; [1]): 0.467
- Array Heatmap signal, PHF8 (PHF8; [1]): 0.4166
- Array Heatmap signal, PHRF1 (RP) (PHRF1 (RP); [1]): 0.4393
- Array Heatmap signal, RAG2 (RAG2; [1]): 0.2497
- Array Heatmap signal, SP140L (SP140L; [1]): 0.3805
- Array Heatmap signal, TAF3 (TAF3; [1]): 0.309
- Array Heatmap signal, TRIM66 (PB) (TRIM66 (PB); [2]): 0.6313
